According to patent publication US20030100109A1, “Methods and compositions for in vitro germination and propagation of polygonatum cirrhifolium royle” (priority 2001, published 2003):
Where “and” joins values, the source holds several entries; their conditions need not be identical. Equal values may be shown once.

What was measured:
[1] = system: Polygonatum cirrhifolium Royle seeds with emerged hypocotyl; test: Synchronization of germination: release of epicotyl, coleoptile and radicle from seeds with emerged hypocotyl; assay type: in vivo; details: modified MS culture medium, 20° C., 16 hr photoperiod
Protocol: Germination was evaluated every three days by examining seeds for hypocotyl emergence. […] Seeds with emerged hypocotyl were transferred under aseptic conditions to the above defined basal culture medium containing gibberellic acid at 5, 25, 50 and 100 mg/L. Transferred plants were incubated in an environment having 8-16-hr days under about 2000 lux of light and about 8-16-hr nights in total darkness at a constant temperature of 20° C. ([…]) and at 50-60% RH. Illumination was provided by 40-watt cool, white fluorescent tubes. Germination synchronization as indicated by differentiated epicotyl with emergent coleoptile and radicle was recorded on daily basis. The consequent step of synchronization of germination is presented in table 3 in which epicotyl with emergent coleoptile and radicle is manifest under 8-16 hr photoperiod (light intensity 2000-3500 lux) at an incubation temperature of 20° C. (RH 50-60%). In this experiment seeds with emerged hypocotyl were transferred to the culture to modified MS basal culture medium containing of 2.2 g/L NH4NO3, 2.0 g/L KNO3, 0.44 g/l CaCl2.2H2P, 0.37 g/L MgSO4.7H20, 0.17 g/L KH2PO4, 37.25 mg/L Na2 EDTA, 27.8 mg/L FeSO4.7H20, 0.83 mg/L KI, 6.2 mg/L H3BO3, 22.3 mg/L MnSO4.4H20, 8.6 mg/L ZnSO4.7H20, 0.25 mg/L Na2MoO4.2H20, 0.025 mg/L CuSO4.5H2O, 0.025 mg/L CoCl2.6H20, 250 mg/L myo-inositol, 0.5 mg/L nicotinic acid, 0.5 mg/L pyridoxine HCl, 3 mg/L thiamine HCl, 2 mg/L glycine, 30 g/L sucrose and 7.5 g/L agar and supplemented with 4 concentrations of GA3 viz. […], 25, 50 and 100 mg/L. Cultures were incubated at 20° C. under 16 hr photoperiod in a growth chamber. there were four treatments in total and each treatment consisted of 15 replicates with 4 seeds with emerged hypocotyl in each replicate. The effect of various treatments on the release of epicotyl, coleoptile radicle and days to release/synchronization is described in table 3.100 mg/L of GA3 results in 100% synchronization after 11 days of culture.

[2] = system: Polygonatum cirrhifolium Royle seeds; test: Induction of germination (hypocotyl emergence) on modified MS medium with GA3 at diurnal 30/20° C. in dark; assay type: in vivo; details: modified MS culture medium, 20/30° C. in dark
Protocol: Ripe purplish berries from plants grown in the wild were collected and dehydrated for 15 days at room temperature (29° C.±2° C.). Seeds were collected from dehydrated berries and washed in tap water with 1-2 drops of Tween-20™ for 2 hours and rinsed three times in distilled water. Seeds were then surface sterilized with 0.1% mercuric chloride (HgCl2) for 3 minutes. Mercuric chloride was removed by washing seeds four times in sterile distilled water. Sterilized, rinsed seeds were placed on semi-solid culture medium in sterile disposable plastic Petri plates (10 cm×2 cm). Macro and micro nutrients in the basal medium were that of Murashige and Skoog's (Murashige, T. and Skoog, F. […]. Physiol Plant 15: 433 -497) but modified to contain 2.2 g/L NH4NO3, 2.0 g/L KNO3, 0.44 g/l CaCl2.2H2O, 0.37 g/L MgSO4.7H20, 0.17 g/L KH2PO4, 37.25 mg/L Na2 EDTA, 27.8 mg/L FeSO4.7H20, 0.83 mg/L KI, 6.2 mg/L H3BO3, 22.3 mg/L MnSO4.4H20, 8.6 mg/L ZnSO4.7H20, 0.25 mg/L Na2 MoO4.2H20, 0.025 mg/L CuSO4.5H2O, 0.025 mg/L CoCl2.6H20. This medium was supplemented with 250 mg/L myo-inosital, 0.5 mgl/l nicotinic acid, 0.5 mg/L pyridoxine HCl, 3 mg/L thiamine HCl, 2 mg/L glycine, 30 g/L sucrose, 7.5 g/L agar and 2, 10, 25, and 50 mg/L gibberellic acid. The pH of the medium was adjusted to 5.8 before adding agar. Medium was sterilized at 121° C. (15 lb. psi pressure) for 20 minutes. […] Seeds with emerged hypocotyl were transferred under aseptic conditions to the above defined basal culture medium containing gibberellic acid at 5, 25, 50 and 100 mg/L. Transferred plants were incubated in an environment having 8-16-hr days under about 2000 lux of light and about 8-16-hr nights in total darkness at a constant temperature of 20° C. ([…]) and at 50-60% RH. Illumination was provided by 40-watt cool, white fluorescent tubes. Germination synchronization as indicated by differentiated epicotyl with emergent coleoptile and radicle was recorded on daily basis. Tables 1 and 2 show the induction of germination as indicated by the emergence of hypocotyl at temperature of 30° C. (±2° C.; dark; RH 50-60%) and diurnal temperature of 30/20° C. (±2° C.; dark; RH 50-60%). In this experiment also there were 4 treatments with varying levels of GA3 2-50 mg/L. Supplemented to the modified MS basal culture medium containing of 2.2 g/L NH4NO3, 2.0 g/L KNO3, 0.44 g/l CaCl2.2H2O, 0.37 g/L MgSO4.7H20, 0.17 g/L KH2PO4, 37.25 mg/L Na2 EDTA, 27.8 mg/L FeSO4.7H20, 0.83 mg/L KI, 6.2 mg/L H3BO3, 22.3 mg/L MnSO4.4H20, 8.6 mg/L ZnSO4.7H20, 0.25 mg/L Na2 MoO4.2H20, 0.025 mg/L CuSO4.5H2O, 0.025 mg/L CoCl2.6H20, […], 0.5 mg/L nicotinic acid, 0.5 mg/L pyridoxine HCl, 3 mg/L thiamine HCl, 2 mg/L glycine, 30 g/L sucrose and 7.5 g/L agar. Cultures were incubated under diurnal temperature regime of 30/20° C. (dark). Each treatment consisted of 15 replicates with 5 seeds in each. Germination is induced in all the treatments (table 2). Maximum germination of 62.12% is obtained at 50 mg/L Of GA3.

## C=C1C[C@]23C[C@@]1(O)CC[C@H]2[C@@]12C=C[C@H](O)[C@@](C)(C(=O)O1)[C@H]2[C@@H]3C(=O)O [GA3, gibberellic acid]
[1]; GA3 10 mg/L
  Days to release epicotyl, coleoptile & radicle: 21 days
  Percent seeds with epicotyl, coleoptile & radicle: 23.71 ± 2.00%
[1]; GA3 25 mg/L
  Days to release epicotyl, coleoptile & radicle: 18 days
  Percent seeds with epicotyl, coleoptile & radicle: 78.23 ± 3.11%
[1]; GA3 50 mg/L
  Days to release epicotyl, coleoptile & radicle: 14 days
  Percent seeds with epicotyl, coleoptile & radicle: 100.00 ± 0.00%
[1]; GA3 100 mg/L
  Days to release epicotyl, coleoptile & radicle: 11 days
  Percent seeds with epicotyl, coleoptile & radicle: 100% and 100.00 ± 0.00%
[2]; GA3 2 mg/L
  Duration of germination: 32-73
  Percent germination: 12.41 ± 6.17%
[2]; GA3 10 mg/L
  Duration of germination: 34-72
  Percent germination: 18.06 ± 4.32%
[2]; GA3 25 mg/L
  Duration of germination: 27-63
  Percent germination: 46.00 ± 5.11%
[2]; GA3 50 mg/L
  Duration of germination: 23-58
  Percent germination: 62.12% and 62.12 ± 3.66%
